# From US7880025B2, “Ruthenium silyl-arene complex , and method for production thereof” (Takasago International Corporation, priority 2009, dated 2011)
# Assay: Solubility of [RuCl2(arene)]2 complexes in 100 ml of solvent at 25° C. in various solvents
substance,measurement,setting,value
[RuCl2(mesitylene)]2,"solubility in 100 ml of solvent, Acetone",solvent Acetone,0.01 g/100 ml
same,"solubility in 100 ml of solvent, Chloroform",solvent Chloroform,0.3 g/100 ml
same,"solubility in 100 ml of solvent, Methanol",solvent Methanol,0.03 g/100 ml
same,"solubility in 100 ml of solvent, THF",solvent THF,0.5 g/100 ml
same,"solubility in 100 ml of solvent, Toluene",solvent Toluene,0.2 g/100 ml
